Data published in patent US20240228411A1, “Functionalization of Lightly Branched Olefin Oligomers” (ExxonMobil Chemical Patents Inc., priority 2021, published 2024).
Where a name gives a salt, the structure may show the parent alone.

Legend:
Type in all cases: physicochemical
[1] = Critical micelle concentration in water, Kruss K100 tensiometer
Procedure: Critical micelle concentrations in water were measured using an A Kruss Laboratory K100 tensiometer. CMC values were determined using the K100 instrument's fully automated measurement method, as described further in the K100 instrument's operating manual.

[2] = Calcium tolerance (hard water tolerance), surfactant remaining in filtrate by HPLC-ELSD; conditions: 25° C., 450 ppm surfactant, 420 ppm cations (3:1 Ca2+:Mg2+), overnight
Procedure: Calcium tolerance was measured at 25° C. using the following procedure. A surfactant solution containing 450 ppm of alcohol sulfate surfactant and 420 ppm cations (3:1 Ca^2+:Mg^2+) was prepared and allowed to stand overnight. Crystals formed during this time. The supernatant liquid was removed and passed through a 0.22 μm filter to provide a filtrate. The filtrate was then analyzed for surfactant residue. Analysis of the surfactant and salt residue was performed using an Agilent 1100 HPLC combined with SEDEX 75 evaporative light scattering detector (ELSD) using the run conditions specified in Table 4 below. Peak height was utilized to analyze surfactant concentration. Some samples were repeated in triplicate. Calcium tolerance results are specified in Table 5 below.

Wetting time, skein test = conditions: average of three measurements; for Wetting time (1 g/L): 1 g/L surfactant; for Wetting time (2 g/L): 2 g/L surfactant
Procedure: Wetting time was measured by heating an aqueous mixture of the surfactant in an oven for 15-20 minutes at 50-60° C. and homogenizing regularly. 1+/−0.1 g or 2+/−0.1 g of the surfactant was weighed into a 1 L volumetric flask, and distilled water was added by portions of 200-300 mL and agitating regularly. After the resulting foam disappeared, the volume was adjusted to the 1 liter level. Skein yams were removed from their packaging and hung for a period of time before measurement. The surfactant solution was poured into a graduated cylinder (1 L), and foam was removed with a small nitrogen or air flow. The skein was folded one time. A hook was fastened with its anchor at one end of the folded skein, and at the opposite end, the skein was cut through. The cut skein was then compacted. The skein was held with the anchor and the weight above the 1-liter graduated cylinder containing the surfactant solution. A stopwatch was activated just as the skein was released into the surfactant solution. The stopwatch was stopped once the skein started to sink. The average of three measurements using fresh surfactant solution and a new skein each time is reported. Wetting results are specified in Table 5 below.

[3] = Solubility in water at 25° C., visual observation; conditions: 2-3 hours magnetic stirring
Procedure: Solubility measurements were conducted in water at 25° C. Solubility was determined through visual observation after 2-3 hours of magnetic stirring of surfactant solutions having variable concentrations.

| Structure (SMILES) | CMC [1] [g/g] | Calcium tolerance (ppm surfactant remaining) [2] [ppm] | Wetting time (1 g/L) (Wetting time, skein test) [s] | Wetting time (2 g/L) (Wetting time, skein test) [s] | Solubility at 25° C. [3] [% Wt. %] |
| --- | --- | --- | --- | --- | --- |
| CCCCCCCCCCCCCOS(=O)(=O)[O-].[Na+] [Sodium n-Tridecyl Sulfate] | 0.001 | 11.2 | 6.3 | 3.1 | <0.5 |
| CCCC(C)CCCC(C)CCCOS(=O)(=O)O (centres unmarked) [Isotridecyl Sulfate-2, C# = 13, 4,8-dimethylundecan-1-sulfate] | 0.00129 |  | 6.1 | 2.3 |  |
